Paper PMC6151435, “Bioactivity In Vitro of Quercetin Glycoside Obtained in Beauveria bassiana Culture and Its Interaction with Liposome Membranes” (Molecules : A Journal of Synthetic Chemistry and Natural …, 2017)
Converted amounts (≈) assume the structure as drawn. Where two headings read alike, the source gives them in different places.

Legend:
[1] = system: HSA; settings: cited from earlier work; for binding constant to HSA: ref [59]
[2] = cited from earlier work
[3] = parameters: method as in Strugała et al. [46]; settings: ref Strugała et al. [46]; read-out: IC50 AAPH PC (inhibition of AAPH induced oxidation of phosphatidylcholine liposomes); cited from earlier work
[4] = rat, in vivo; cited from earlier work
[5] = Solubility in water (literature values); assay type: physicochemical; settings: from cited values

For `COc1ccc2c(c1)c(CC(=O)O)c(C)n2C(=O)c1ccc(Cl)cc1` [Indomethacin, indomethacin], the “binding constant to HSA” value [1] is given as roughly 489000 M⁻¹.

For `O=C1C[C@@H](c2ccc(O)cc2)Oc2cc(O)cc(O)c21` [naringenin], the solubility ([2]; at 20 °C, ref [9]) is given as 4.38 µg/mL (≈ 16.1 µM).

In the case of `CC(=O)Oc1ccccc1C(=O)O` [aspirin], the “binding constant to HSA” value [1] is listed as “approximately 1.4 × 10^4 M^−1”.

For `O=C1O[C@H]([C@@H](O)CO)C(O)=C1O` [L(+) ascorbic acid, L-(+)-ascorbic acid], the IC50 [3] is listed as 129 ± 12.4 µM.

In the case of `O=c1c(O[C@@H]2O[C@H](CO)[C@@H](O)[C@H](O)[C@H]2O)c(-c2ccc(O)c(O)c2)oc2cc(O)cc(O)c12` [3-O-glucoside of quercetin], the “absorption, higher compared to quercetin itself” value [4] is given as 184%.

For `C[C@@H]1O[C@@H](O[C@H]2[C@H](Oc3cc(O)c4c(c3)O[C@H](c3ccc(O)cc3)CC4=O)O[C@H](CO)[C@@H](O)[C@@H]2O)[C@H](O)[C@H](O)[C@H]1O` [naringin], the solubility ([2]; ref [10]) is given as 500 µg/mL (≈ 861 µM) and the “solubility, fold higher than aglycone naringenin” value [5] is given as “more than 110 fold”.

For `Cc1cnc(NC(=O)C2=C(O)c3ccccc3S(=O)(=O)N2C)s1` [meloxicam], the “association constant to HSA” value ([1]; order of magnitude, ref [58]) is listed as ~10^5 M^−1 and the “bound to HSA” value ([1]; ref [58]) is listed as “more than 99%”.
